Measured values reported in article PMC6353901, “Systematic characterization of position one variants within the lantibiotic nisin” (Scientific Reports, 2019).
Ends that are not written are not given here.

tested on: NisP; assay: Leader peptide cleavage of pre-nisin variants by NisP (RP-HPLC); format: biochemical, Lactococcus lactis; conditions: in vitro cleavage of the leader peptide from purified pre-nisin (variant) by purified secreted NisP, overnight at 8 °C, integration of leader peptide peaks
Excerpt: Step IV concerns leader peptide cleavage and thereby activation of the purified pre-nisin variants. Here, we used the secreted variant of the natural leader peptidase NisP, by which the leader peptide is cleaved in vitro and the cleavage efficiency (%) can be calculated as recently shown. We used an RP-HPLC set-up to monitor product formation, in which the appearance of the leader peptide in the chromatograms was used to determine the concentration of activated nisin (Supplementary Fig. S3). […] The nisin core peptide eluted at a later retention time of approximately 23 min (Supplementary Fig. S3). […] However, in the case of the I1 mutants I1A, I1G, I1T, I1S, I1K, I1R, I1H, I1Q, I1E, I1N and I1D) the formation of a core peptide peak in terms of a new and separated peak in the chromatogram was not observed (Supplementary Fig. S4). Rather, the peaks with a retention time between 18–21 min contained both species, the cleaved and non-cleaved lantibiotic, and can therefore not be deconvoluted for proper determination of the amount of activated nisin. […] The concentration was calculated based on a standard calibration curve (Supplementary Fig. S5), where we precisely determined the concentration of the activated nisin or I1 mutants. We used this concentration determination instead of the colorimetric protein concentration determination as for example Bradford or the BCA-assay since the latter two assays cannot differentiate between the activated and non-activated form of the secreted variants. Since nisin is not active unless the leader is cleaved off, the determination of the area of the leader peak to calculate the amount of the activated lantibiotic directly relates to the antimicrobial activity without need to further purify the peptide after cleavage.
All I1 mutations were subjected to NisP cleavage and most of the variants were cleaved, but a strong influence of the nature of the I1 substitutions with respect to cleavage efficiency was observed (Supplementary Fig. S6). The cleavage efficiency for wild type pre-nisin A was 94.3 ± 1.7% but lower for the mutants I1M, I1L, I1A and I1V (72.3 ± 1.4%, 72.4 ± 1.3%, 81.0 ± 1.8% and 58.1± 2.8%, respectively). […] This holds especially in those cases, where the amino acid at position one was exchanged to a charged amino acid (e.g. I1K 9.2 ± 1.3%; I1E 9.5 ± 0.7%) or contained a bulky hydrophobic side chain (e.g. I1F 12.9 ± 0.8%; I1W 5.7 ± 0.2%; I1Y 22.6 ± 2.3%) (Supplementary Fig. S6). […] Even after an extensive prolongation of the incubation time, no leader peptide peak was detected in the RP-HPLC chromatogram (Supplementary Fig. S4). It is important to stress in this context that the cleavage efficiencies cannot be determined from Tricine-SDS gels (20%). Here, the leader peptide as well as the core peptide would co-migrate, which obviously will falsify the staining results.
Pre-nisin and its variants were expressed and purified as previously described[41],[49],[69]. The purity of pre-nisin and its variants was controlled by Tricine-SDS-PAGE (20%)[70]. The activation of all variants was performed by NisP cleavage overnight at 8 °C. Pre-nisin cleavage and its variants was monitored by RP-HPLC[49],[69].
Pre-nisin and the activated nisin variants were analysed by RP-HPLC (Agilent Technologies 1260 Infinity II) with a LiChrospher WP 300 RP-18 end-capped column and an acetonitrile/water solvent system. The cleavage efficiency and the concentration of active lantibiotic was calculated as described previously[49],[69].

Compound	cleavage efficiency by NisP
C=C(NC(=O)[C@@H](NC(=O)[C@H](Cc1c[nH]cn1)NC(=O)[C@@H](NC(=O)[C@H](CO)NC(=O)[C@@H]1CS[C@@H](C)[C@H]2NC(=O)[C@H](C)NC(=O)[C@H](NC(=O)[C@H](CCCCN)NC(=O)[C@H](CCSC)NC(=O)[C@H](CC(N)=O)NC(=O)[C@@H]3CS[C@@H](C)[C@@H](NC(=O)[C@H](CCCCN)NC(=O)[C@@H]4CS[C@@H](C)[C@@H](NC(=O)[C@@H]5CSC[C@@H](NC(=O)/C(=C/C)NC(=O)[C@@H](N)Cc6c[nH]c7ccccc67)C(=O)N[C@@H]([C@@H](C)CC)C(=O)NC(=C)C(=O)N[C@@H](CC(C)C)C(=O)N5)C(=O)N5CCC[C@H]5C(=O)NCC(=O)N4)C(=O)NCC(=O)N[C@@H](C)C(=O)N[C@@H](CC(C)C)C(=O)N[C@@H](CCSC)C(=O)NCC(=O)N3)[C@H](C)SC[C@H](NC2=O)C(=O)N[C@@H](Cc2c[nH]cn2)C(=O)N1)[C@@H](C)CC)C(C)C)C(=O)N[C@@H](CCCCN)C(=O)O [I1W]	5.7 ± 0.2%
C=C(NC(=O)[C@@H](NC(=O)[C@H](Cc1c[nH]cn1)NC(=O)[C@@H](NC(=O)[C@H](CO)NC(=O)[C@@H]1CS[C@@H](C)[C@H]2NC(=O)[C@H](C)NC(=O)[C@H](NC(=O)[C@H](CCCCN)NC(=O)[C@H](CCSC)NC(=O)[C@H](CC(N)=O)NC(=O)[C@@H]3CS[C@@H](C)[C@@H](NC(=O)[C@H](CCCCN)NC(=O)[C@@H]4CS[C@@H](C)[C@@H](NC(=O)[C@@H]5CSC[C@@H](NC(=O)/C(=C/C)NC(=O)[C@@H](N)Cc6ccccc6)C(=O)N[C@@H]([C@@H](C)CC)C(=O)NC(=C)C(=O)N[C@@H](CC(C)C)C(=O)N5)C(=O)N5CCC[C@H]5C(=O)NCC(=O)N4)C(=O)NCC(=O)N[C@@H](C)C(=O)N[C@@H](CC(C)C)C(=O)N[C@@H](CCSC)C(=O)NCC(=O)N3)[C@H](C)SC[C@H](NC2=O)C(=O)N[C@@H](Cc2c[nH]cn2)C(=O)N1)[C@@H](C)CC)C(C)C)C(=O)N[C@@H](CCCCN)C(=O)O [I1F]	12.9 ± 0.8%
C=C(NC(=O)[C@@H](NC(=O)[C@H](Cc1c[nH]cn1)NC(=O)[C@@H](NC(=O)[C@H](CO)NC(=O)[C@@H]1CS[C@@H](C)[C@H]2NC(=O)[C@H](C)NC(=O)[C@H](NC(=O)[C@H](CCCCN)NC(=O)[C@H](CCSC)NC(=O)[C@H](CC(N)=O)NC(=O)[C@@H]3CS[C@@H](C)[C@@H](NC(=O)[C@H](CCCCN)NC(=O)[C@@H]4CS[C@@H](C)[C@@H](NC(=O)[C@@H]5CSC[C@@H](NC(=O)/C(=C/C)NC(=O)[C@@H](N)Cc6ccc(O)cc6)C(=O)N[C@@H]([C@@H](C)CC)C(=O)NC(=C)C(=O)N[C@@H](CC(C)C)C(=O)N5)C(=O)N5CCC[C@H]5C(=O)NCC(=O)N4)C(=O)NCC(=O)N[C@@H](C)C(=O)N[C@@H](CC(C)C)C(=O)N[C@@H](CCSC)C(=O)NCC(=O)N3)[C@H](C)SC[C@H](NC2=O)C(=O)N[C@@H](Cc2c[nH]cn2)C(=O)N1)[C@@H](C)CC)C(C)C)C(=O)N[C@@H](CCCCN)C(=O)O [I1Y]	22.6 ± 2.3%
C=C(NC(=O)[C@@H](NC(=O)[C@H](Cc1c[nH]cn1)NC(=O)[C@@H](NC(=O)[C@H](CO)NC(=O)[C@@H]1CS[C@@H](C)[C@H]2NC(=O)[C@H](C)NC(=O)[C@H](NC(=O)[C@H](CCCCN)NC(=O)[C@H](CCSC)NC(=O)[C@H](CC(N)=O)NC(=O)[C@@H]3CS[C@@H](C)[C@@H](NC(=O)[C@H](CCCCN)NC(=O)[C@@H]4CS[C@@H](C)[C@@H](NC(=O)[C@@H]5CSC[C@@H](NC(=O)/C(=C/C)NC(=O)[C@H](C)N)C(=O)N[C@@H]([C@@H](C)CC)C(=O)NC(=C)C(=O)N[C@@H](CC(C)C)C(=O)N5)C(=O)N5CCC[C@H]5C(=O)NCC(=O)N4)C(=O)NCC(=O)N[C@@H](C)C(=O)N[C@@H](CC(C)C)C(=O)N[C@@H](CCSC)C(=O)NCC(=O)N3)[C@H](C)SC[C@H](NC2=O)C(=O)N[C@@H](Cc2c[nH]cn2)C(=O)N1)[C@@H](C)CC)C(C)C)C(=O)N[C@@H](CCCCN)C(=O)O [I1A]	81.0 ± 1.8%
C=C(NC(=O)[C@@H](NC(=O)[C@H](Cc1c[nH]cn1)NC(=O)[C@@H](NC(=O)[C@H](CO)NC(=O)[C@@H]1CS[C@@H](C)[C@H]2NC(=O)[C@H](C)NC(=O)[C@H](NC(=O)[C@H](CCCCN)NC(=O)[C@H](CCSC)NC(=O)[C@H](CC(N)=O)NC(=O)[C@@H]3CS[C@@H](C)[C@@H](NC(=O)[C@H](CCCCN)NC(=O)[C@@H]4CS[C@@H](C)[C@@H](NC(=O)[C@@H]5CSC[C@@H](NC(=O)/C(=C/C)NC(=O)[C@@H](N)CC(C)C)C(=O)N[C@@H]([C@@H](C)CC)C(=O)NC(=C)C(=O)N[C@@H](CC(C)C)C(=O)N5)C(=O)N5CCC[C@H]5C(=O)NCC(=O)N4)C(=O)NCC(=O)N[C@@H](C)C(=O)N[C@@H](CC(C)C)C(=O)N[C@@H](CCSC)C(=O)NCC(=O)N3)[C@H](C)SC[C@H](NC2=O)C(=O)N[C@@H](Cc2c[nH]cn2)C(=O)N1)[C@@H](C)CC)C(C)C)C(=O)N[C@@H](CCCCN)C(=O)O [I1L]	72.4 ± 1.3%
C=C(NC(=O)[C@@H](NC(=O)[C@H](Cc1c[nH]cn1)NC(=O)[C@@H](NC(=O)[C@H](CO)NC(=O)[C@@H]1CS[C@@H](C)[C@H]2NC(=O)[C@H](C)NC(=O)[C@H](NC(=O)[C@H](CCCCN)NC(=O)[C@H](CCSC)NC(=O)[C@H](CC(N)=O)NC(=O)[C@@H]3CS[C@@H](C)[C@@H](NC(=O)[C@H](CCCCN)NC(=O)[C@@H]4CS[C@@H](C)[C@@H](NC(=O)[C@@H]5CSC[C@@H](NC(=O)/C(=C/C)NC(=O)[C@@H](N)CCCCN)C(=O)N[C@@H]([C@@H](C)CC)C(=O)NC(=C)C(=O)N[C@@H](CC(C)C)C(=O)N5)C(=O)N5CCC[C@H]5C(=O)NCC(=O)N4)C(=O)NCC(=O)N[C@@H](C)C(=O)N[C@@H](CC(C)C)C(=O)N[C@@H](CCSC)C(=O)NCC(=O)N3)[C@H](C)SC[C@H](NC2=O)C(=O)N[C@@H](Cc2c[nH]cn2)C(=O)N1)[C@@H](C)CC)C(C)C)C(=O)N[C@@H](CCCCN)C(=O)O [I1K]	9.2 ± 1.3%
I1P: nisin A variant, position one exchanged to P; pre-peptide not cleaved by NisP (MSTKDFNLDLVSVSKKDSGASPRPTSISLCTPGCKTGALMGCNMKTATCHCSIHVSK; ends and bridges not checked; cysteine pairing not given here; UniProt P13068 1-57, looked up, variant I1P)	not cleaved at all
C=C(NC(=O)[C@@H](NC(=O)[C@H](Cc1c[nH]cn1)NC(=O)[C@@H](NC(=O)[C@H](CO)NC(=O)[C@@H]1CS[C@@H](C)[C@H]2NC(=O)[C@H](C)NC(=O)[C@H](NC(=O)[C@H](CCCCN)NC(=O)[C@H](CCSC)NC(=O)[C@H](CC(N)=O)NC(=O)[C@@H]3CS[C@@H](C)[C@@H](NC(=O)[C@H](CCCCN)NC(=O)[C@@H]4CS[C@@H](C)[C@@H](NC(=O)[C@@H]5CSC[C@@H](NC(=O)/C(=C/C)NC(=O)[C@@H](N)CCSC)C(=O)N[C@@H]([C@@H](C)CC)C(=O)NC(=C)C(=O)N[C@@H](CC(C)C)C(=O)N5)C(=O)N5CCC[C@H]5C(=O)NCC(=O)N4)C(=O)NCC(=O)N[C@@H](C)C(=O)N[C@@H](CC(C)C)C(=O)N[C@@H](CCSC)C(=O)NCC(=O)N3)[C@H](C)SC[C@H](NC2=O)C(=O)N[C@@H](Cc2c[nH]cn2)C(=O)N1)[C@@H](C)CC)C(C)C)C(=O)N[C@@H](CCCCN)C(=O)O [I1M]	72.3 ± 1.4%
C=C(NC(=O)[C@@H](NC(=O)[C@H](Cc1c[nH]cn1)NC(=O)[C@@H](NC(=O)[C@H](CO)NC(=O)[C@@H]1CS[C@@H](C)[C@H]2NC(=O)[C@H](C)NC(=O)[C@H](NC(=O)[C@H](CCCCN)NC(=O)[C@H](CCSC)NC(=O)[C@H](CC(N)=O)NC(=O)[C@@H]3CS[C@@H](C)[C@@H](NC(=O)[C@H](CCCCN)NC(=O)[C@@H]4CS[C@@H](C)[C@@H](NC(=O)[C@@H]5CSC[C@@H](NC(=O)/C(=C/C)NC(=O)[C@@H](N)C(C)C)C(=O)N[C@@H]([C@@H](C)CC)C(=O)NC(=C)C(=O)N[C@@H](CC(C)C)C(=O)N5)C(=O)N5CCC[C@H]5C(=O)NCC(=O)N4)C(=O)NCC(=O)N[C@@H](C)C(=O)N[C@@H](CC(C)C)C(=O)N[C@@H](CCSC)C(=O)NCC(=O)N3)[C@H](C)SC[C@H](NC2=O)C(=O)N[C@@H](Cc2c[nH]cn2)C(=O)N1)[C@@H](C)CC)C(C)C)C(=O)N[C@@H](CCCCN)C(=O)O [I1V]	58.1± 2.8%
